Source: patent publication US6514946B1, “Macrolide antibiotics and treatment and prophylaxis of pasteurellosis using the same” (Zaidan Hojin Biseibutsu Kagaku Kenkyu Kai, priority 1999, dated 2003)
≈ marks a conversion by molar mass, not a printed value.

Tests used:
[1] = test system: P. haemolytica 63-39 intraperitoneally infected mice; test: Antiinfective test on infected mice
S. aureus FDA209P = test: Minimum inhibition concentration (MIC), agar double dilution method; assay type: cell-based, Staphylococcus aureus; conditions: Staphylococcus aureus, Mueller hinton agar, read-out: MIC
Description: (§1) Test 1; Minimum Inhibition Concentration (MIC)
(§2) MIC was measured, based on the standard method of Japan Society of Chemotherapy, on a BHI agar medium (Brain heart-infusion agar, made by Difco Laboratories Inc.(USA)) with respect to Pasteurella and on a Mueller hinton agar medium (Mueller hinton agar, made by Difco, Laboratories Inc.(USA)) with respect to the other test bacteria in both cases according to the double dilution method.

[2] = test system: S. aureus Smith (virulent strain); test: microbe, parasite or virus in culture; assay type: cell-based, Staphylococcus aureus; conditions: Staphylococcus aureus
Description: as §1, §2

[3] = test system: Past haemolytica BBPO102 N811; test: Minimum inhibition concentration (MIC), agar double dilution method; assay type: cell-based, Pasteurella haemolytica; conditions: Mannheimia haemolytica, BBPO102N811
Description: as §1, §2

[4] = test system: Past haemolytica BAPO103 S801; test: as above; assay type: cell-based, Pasteurella haemolytica; conditions: Mannheimia haemolytica, BAPO103S801; Past haemolytica BAPO103 S801, strain from poultry; BHI agar; read-out: MIC
Description: as §1, §2

P. haemolytica 63-39 = test: Sensitivity (MIC), agar plate dilution method; conditions: Mannheimia haemolytica, 6339
M. bovis = assay type: in vivo, cattle; conditions: nasal cavity swab
[5] = In vivo kinetics (absorption and excretion test) in mice; conditions: male, Slc ddY, mouse, sc, 5 mg/kg
E. coli K-12 R-5 = test: Minimum inhibition concentration (MIC), agar double dilution method; assay type: cell-based, Escherichia coli; conditions: Escherichia coli, K12R5, Mueller hinton agar, read-out: MIC
Description: as §1, §2

Escherichia coli NIHJ = test: as above; assay type: cell-based; conditions: Mueller hinton agar, read-out: MIC
Description: as §1, §2

Proteus vulgaris OX19 = test: as above; assay type: cell-based; conditions: Mueller hinton agar, read-out: MIC
Description: as §1, §2

Serratia marcescens = test: as above; assay type: cell-based; conditions: Mueller hinton agar, read-out: MIC
Description: as §1, §2

[6] = test system: Micrococcus luteus PCI1001; test: as above; assay type: cell-based; conditions: Mueller hinton agar, read-out: MIC
Description: as §1, §2

[7] = test system: Enterobacter aerogenes ATCC13048; test: as above; assay type: cell-based; conditions: Klebsiella aerogenes, Mueller hinton agar, read-out: MIC
Description: as §1, §2

[8] = test system: Shigella dysenteriae JS11910; test: as above; assay type: cell-based; conditions: Shigella dysenteriae, JS11910
Description: as §1, §2

[9] = test system: Klebsiella pneumoniae PCI602; test: as above; assay type: cell-based; conditions: Mueller hinton agar, read-out: MIC
Description: as §1, §2

[10] = test system: Staphylococcus aureus 193; test: as above; assay type: cell-based; conditions: Mueller hinton agar, read-out: MIC
Description: as §1, §2

[11] = test system: Pasteurella haemolytica BBPO101 N791; test: as above; assay type: cell-based; conditions: Mannheimia haemolytica, BBPO101N791
Description: as §1, §2

[12] = test system: Bacillus subtilis NRRL B-558; test: as above; assay type: cell-based; conditions: Bacillus subtilis, NRRLB558
Description: as §1, §2

[13] = test system: Salmonella enteritidis 1891; test: as above; assay type: cell-based; conditions: Salmonella enterica, Mueller hinton agar, read-out: MIC
Description: as §1, §2

H. somnus = test: Bacteria separation test from nasal cavity swab; assay type: in vivo, cattle
P. haemolytica = test: Bacteria separation test from nasal cavity swab; assay type: in vivo, cattle
[14] = test system: bovine bacterial pneumonia (Mycoplasma, Ureaplasma and Pasteurella); test: Clinical test against bovine bacterial pneumonia; assay type: in vivo, cattle; design: Average clinical score: scale not given here
Text: Test 5: Clinical Test Against Bovine Bacterial Pneumonia
In this test, each drug was subcutaneously administered to cattle suffering from bacterial pneumonia (infectious diseases with Mycoplasma, Ureaplasma and Pasteurella), respectively, and the clinical effect of P-MT was compared with those of tilmicosin and C-9.
Tests are made on 17 case of one to two-month-old Holstein cattle (weight 56 to 101 kg) suffering from bacterial pneumonia caused by single or mixed infection of Pasteurella, Mycoplasma, Ureaplasma and Haemophilus (6 animals for each of P-MT and C-9 and 5 animals for tilmicosin). The drug was subcutaneously administered to the animals once a day in an amount of 10 mg/kg.
Three calves showing a similar degree of symptoms at the start of the test were arranged in one group. Each subject of the same group was respectively tested with one of the above three compounds. Ailing calves were successively grouped when being available.
Clinical findings, based on the daily observation from the time of the administration through the 5th day of the trial, were scored on each item according to the criteria in the table below. The clinical efficacy of the compounds was judged on the 5th day.
As to judgment based on the clinical symptoms, cases which could be judged among each group were classified into remarkably effective (85 to 100), effective (70 to under 85), a little effective (50 to under 70) and infective (under 50) according to the following improvement rate by clinical scores, and after summing up, the following effective rate was calculated, the difference in the effective rate among the groups was determined using a statistical method, and thus effectivity was judged. [formula]

ICR mice = test: Toxicity test, intravenous or subcutaneous injection; assay type: in vivo; conditions: intravenous injection
[15] = before administration (baseline)

SMILES: CC[C@H]1OC(=O)C[C@@H](O)[C@H](C)[C@@H](O[C@@H]2O[C@H](C)C(O)C(N(C)C)C2O)[C@@H](CCN2CC(C)CC(C)C2)C[C@@H](C)C(=O)/C=C/C(C)=C/[C@@H]1CO[C@@H]1OC(C)C(O)[C@@H](OC)C1OC (stereo partly drawn) [Tilmicosin, tilmicosin]
- ED50 ([1]; Mannheimia haemolytica, in Mus musculus, sc, 168 h, read-out: ED50 (95% confidence limit)): 26.2 mg/kg
- Surviving number after 7 days/test number ([1]; dose 1 mg/kg subcutaneous one hour after infection): 0/10
- Surviving number after 7 days/test number ([1]; dose 5 mg/kg subcutaneous one hour after infection): 0/10
- Surviving number after 7 days/test number ([1]; dose 10 mg/kg subcutaneous one hour after infection): 3/10
- Surviving number after 7 days/test number ([1]; dose 20 mg/kg subcutaneous one hour after infection): 4/10
- Surviving number after 7 days/test number ([1]; dose 30 mg/kg subcutaneous one hour after infection): 5/10
- ED90 ([1]; probit method from surviving numbers after 7 days, subcutaneous): 102.1 mg/kg
- MIC (S. aureus FDA209P): 0.39 µg/mL (≈ 0.449 µM)
- MIC [2]: 1.56 µg/mL (≈ 1.79 µM)
- MIC [3]: 1.56 µg/mL (≈ 1.79 µM)
- MIC [4]: 50 µg/mL (≈ 57.5 µM)
- MIC (P. haemolytica 63-39): 3.13 µg/mL (≈ 3.6 µM)
- Separation rate (%) at completion (number of animal) (M. bovis; at completion): 40 (2/5) % (number of animal)
- Separation rate (%) before administration (number of animal) (M. bovis; [15]): 40 (2/5) % (number of animal)
- concentration at 0.5 h ([5]; lung): 310 ng/g
- concentration at 1 h ([5]; lung): 350 ng/g
- concentration at 2 h ([5]; lung): 310 ng/g
- concentration at 4 h ([5]; lung): 230 ng/g
- concentration at 8 h ([5]; lung): 195 ng/g
- concentration at 24 h ([5]; lung): 60 ng/g
- concentration at 0.5 h ([5]; serum): 230 ng/mL
- concentration at 1 h ([5]; serum): 60 ng/mL
- concentration at 2 h ([5]; serum): 50 ng/mL
- concentration at 4 h ([5]; serum): 40 ng/mL
- MIC (E. coli K-12 R-5): > 100 µg/mL
- MIC (Escherichia coli NIHJ): 25 µg/mL (≈ 28.8 µM)
- MIC (Proteus vulgaris OX19): 100 µg/mL (≈ 115 µM)
- MIC (Serratia marcescens): > 100 µg/mL
- MIC [6]: 0.2 µg/mL (≈ 0.23 µM)
- MIC [7]: 100 µg/mL (≈ 115 µM)
- MIC [8]: 100 µg/mL (≈ 115 µM)
- MIC [9]: 25 µg/mL (≈ 28.8 µM)
- MIC [10]: 0.39 µg/mL (≈ 0.449 µM)
- MIC [11]: 1.56 µg/mL (≈ 1.79 µM)
- MIC [12]: 1.56 µg/mL (≈ 1.79 µM)
- MIC [13]: 6.25 µg/mL (≈ 7.19 µM)
- Separation rate (%) at completion (number of animal) (H. somnus; at completion): 0 (0/5) % (number of animal)
- Separation rate (%) before administration (number of animal) (H. somnus; [15]): 0 (0/5) % (number of animal)
- Separation rate (%) at completion (number of animal) (P. haemolytica; at completion): 20 (1/5) % (number of animal)
- Separation rate (%) before administration (number of animal) (P. haemolytica; [15]): 20 (1/5) % (number of animal)
- Average clinical score ([14]; 1 day after completion of administration, cattle, 10 mg/kg subcutaneous): 3.5
- Average clinical score ([14]; 2 days after completion of administration): 2.8
- Average clinical score ([14]; 3 days after completion of administration): 2.2
- Average clinical score ([14]; 4 days after completion of administration): 2.7
- Effective rate (%) in clinical effect ([14]; (remarkably effective + effective case number)/test case number × 100): 40%
- Average symptomatic improvement rate (%) ([14]; (score before − score after administration)/score before × 100): 65.6%
- Average clinical score ([14]; at administration (baseline), cattle, 10 mg/kg subcutaneous): 6.5
- A little effective (%) (case number) ([14]; improvement rate 50 to under 70): 20 (1) % (case number)
- Effective (%) (case number) ([14]; improvement rate 70 to under 85): 0 (0) % (case number)
- Remarkably effective (%) (case number) ([14]; improvement rate 85 to 100): 40 (2) % (case number)
- Ineffective (%) (case number) ([14]; improvement rate under 50): 40 (2) % (case number)
- Dissection finding (ICR mice; 0.5 mg/mouse): immediate death
- Dissection finding (ICR mice; 1.0 mg/mouse): immediate death
- Dissection finding (ICR mice; 2.0 mg/mouse): immediate death
